US8367731B2, “Peritoneal dialysis fluid” (Fresenius Medical Care Deutschland GmbH, priority 2005, dated 2013)
Where a name gives a salt, the structure may show the parent alone.

Key:
[1] = tested on: complement activation (C3a-desarg); assay: in vitro complement activation, C3a-desarg measured by ELISA after Zymosan addition; assay type: biochemical, rat
Protocol: The complement activation was determined from the concentration of C3a-desarg measured by ELISA (rat C3adesARG ELISA #CL89160K; Cedarlane Laboratories Ltd., Hornby, Ontario, Canada). The C3a-desarg levels were expressed as concentrations. Venous blood was used and introduced in a lepirudin treated 5 cc syringe (50 μl lepirudin (5 mg/ml)+70 μl PBS in the syringe and needle). 0.4 ml was transferred to a 3 cc tube with 1.5 ml PD fluid with citrate additions of 0, 2, 4, 6, 8, and 10 mM, respectively, (i.e. 0, 12, 24, 36, 48, 60 μl of a citrate solution with the citrate concentration of 250 mM). Thereafter the samples were spun to remove the blood cells. 1 ml of the supernatant was transferred to a new tube, 20 μl Zymosan (20 mg/ml) was added and the tube. Thereafter EDTA was added to a final concentration of 15 mM, the Zymosan was spun down, and samples of the supernatant were used for the ELISA measurement referred to above. […] However, the upper limit of citrate, which could be present in a PD fluid, is limited by the total amount of buffer solution within the PD fluid. The amount of added citrate influence the total amount of buffer in the PD fluid since citrate also give rise to a buffer effect. Thus, the buffer used in the PD fluid has to be decreased equal to the equivalent amount of added citrate. […]

[2] = in vivo ultrafiltration volume, intraperitoneal volume by Texas Red labelled albumin dilution; conditions: 10 mM citrate in PD fluid; 2 hours after infusion; FIG. 2
Protocol: The lower limit of the citrate concentration is evident from FIG. 1, where a reasonable inhibited complement cascade is provided with a citrate concentration of at least 4 mM. The ultrafiltration volume was determined with the aid of a fluorescence labelled albumin. This was used as volume marker according to a recently developed technique, in which Texas Red® labelled bovine serum albumin (TR-BSA) has been used as a tracer for determinations of plasma volume. The fluorescence characteristics of TR-BSA (Molecular Probes, Eugene, Oreg., USA) solved in fresh and used PD fluid were evaluated, showing a linear relationship between fluorescence (excitation at 570 nm and emission at 615 nm) and concentration in the range of 0-20 μg/ml. By adding 1 mg/ml of unlabeled bovine serum albumin, a small difference in baseline fluorescence between the fresh and the used PD fluid was eliminated. […] In the present tests, 100 μg Texas Red® labelled bovine serum albumin and 1 mg unlabeled BSA was added to 20 ml PD fluid and intraperitoneal volumes were determined from the dilution calculated from fluorescence values of cell-free samples. The intraperitoneal volumes obtained from measurements of Texas Red® albumin after PD fluid exposure increased when citrate was added to the PD fluid, see FIG. 2. The citrate concentration used in the test of FIG. 2 was 10 mM.

## O=C(O)CC(O)(CC(=O)O)C(=O)O [citrate, tri-sodium citrate]
[1]; read from FIG. 1, lower limit of citrate in PD fluid
  citrate concentration providing a reasonable inhibited complement cascade: at least 4 mM
[1]; venous blood in PD fluid with citrate additions of 0, 2, 4, 6, 8 and 10 mM, Zymosan, FIG. 1
  C3a-desarg concentration (complement activation): decreased with increasing citrate concentration
[2]
  intraperitoneal volumes (ultrafiltration) after PD fluid exposure: increased
